Tests used:
[1] = test system: Plasmodium falciparum 3D7; test: Infection (proliferation) rate of Plasmodium falciparum 3D7 in random culture, Giemsa staining (Example 5); type: cell-based; settings: 48 hours
Procedure: (§1) An iron (II) chloride aqueous solution was added to 1 ml of Plasmodium falciparum 3D7 culture medium having an infection rate of 0.3% to a final concentration of 0.1, 1, 10, and 100 μM. As a control, a culture medium to which sterilized water had been added was used. Three culture media were prepared for each of the aforementioned concentrations, and a 12-well plate was used. After each culture medium had been cultured for 48 hours, the infection rate was measured by Giemsa staining. In addition, as for an ALA-added medium, an ALA chloride aqueous solution was added to the medium to a final concentration of 200 μM, and an iron (II) chloride aqueous solution was then added thereto to a final concentration of 0.1, 1, 10, and 100 μM. As described above, the culture medium was cultured for 48 hours, and the infection rate was then measured by Giemsa staining.
(§2) The infection (proliferation) rate (%) was calculated using the following formula: [(Infection rate after 48 hours−infection rate at initiation of culture)/(infection rate of control after 48 hours−infection rate at initiation of culture)]×100. It is to be noted that the infection rate at initiation of the culture was set at 0.3%.
The ratio of an increase in the infection rate caused by culture was indicated by setting a region to which neither iron nor ALA was added at 100%.

[2] = test system: Plasmodium falciparum 3D7; test: Infection rate of Plasmodium falciparum 3D7 in synchronized culture at the ring stage (Example 6); type: cell-based
Procedure: as §1, §2
According to a common method, there was prepared a Plasmodium falciparum 3D7 culture medium having an infection rate of 0.3%, which was subjected to synchronized culture at the ring stage by treating with 5% sorbitol. The infection rate was measured by the same method as that described in Example 5. The final concentration of ALA hydrochloride was set at 200 μM.

malaria parasites = settings: cited from earlier work
[3] = test system: chloroquine-resistant malaria parasites; test: Administration to a malaria patient not responding to chloroquine (Example 3); type: in vivo, human; settings: predetermined amount of chloroquine alone, body temperature kept around 38 degrees
Procedure: A predetermined amount of chloroquine was administered to a patient who developed malaria. […] They suffered from headache, vertigo and nausea, and their body temperature was kept around 38 degrees. While administering chloroquine, a single capsule of the same capsule as used in Example 1 was also administered to the patient once a day. […] After administration of the capsule for 3 days, administration was suspended.

[4] = test system: Plasmodium falciparum 3D7; test: Infection rate in culture medium with high starting infection rate of 2%, 8 hours culture (Example 7); type: cell-based; settings: ALA hydrochloride 200 μM + iron (II) chloride 10 μM; starting infection rate 2%; culture for 8 hours; nothing added: 3.1%
Procedure: as §1
(§3) A culture medium was prepared in the same manner as in Example 5 with the exception that 2 ml of a culture medium having an infection rate of 2% was used. To the thus prepared culture medium, iron (II) chloride (final concentration: 10 μM) and ALA hydrochloride (final concentration: 200 μM) were added, followed by culture for 8 hours. Thereafter, the infection rate was measured by Giemsa staining.

[5] = test system: Plasmodium falciparum 3D7; test: Infection rate in 2% culture with white LED irradiation (Example 8); type: cell-based; settings: ALA hydrochloride 200 μM; starting infection rate 2%; 8 hours culture, white LED 15 minutes, further 8 hours
Procedure: as §3
ALA hydrochloride was added to a final concentration of 200 μM to a culture medium that had been prepared in the same manner as in Example 7. The obtained mixture was cultured for 8 hours, and thereafter, irradiated with white LED for 15 minutes. The resultant was further cultured for 8 hours, and the infection rate was then measured by Giemsa staining.

NCC(=O)CCC(=O)O [ALA, 5-aminolevulinic acid]
Infection Rate (%) by Random Culture ([1]; ALA 200 μM + iron (II) chloride 0.1 μM): 88%
Infection Rate (%) by Random Culture ([1]; ALA 200 μM + iron (II) chloride 1 μM): 86%
Infection Rate (%) by Random Culture ([1]; ALA 200 μM + iron (II) chloride 10 μM): 59%
Infection Rate (%) by Random Culture ([1]; ALA 200 μM + iron (II) chloride 100 μM): 57%
Infection Rate (%) by Random Culture ([1]; ALA 200 μM, no iron (II) chloride): 96%
Infection Rate by Synchronized Culture (Ring Stage) ([2]; ALA hydrochloride 200 μM + iron (II) chloride 0.1 μM): 69%
Infection Rate by Synchronized Culture (Ring Stage) ([2]; ALA hydrochloride 200 μM + iron (II) chloride 1 μM): 58%
Infection Rate by Synchronized Culture (Ring Stage) ([2]; ALA hydrochloride 200 μM + iron (II) chloride 10 μM): 51%
Infection Rate by Synchronized Culture (Ring Stage) ([2]; ALA hydrochloride 200 μM + iron (II) chloride 100 μM): 5%
Infection Rate by Synchronized Culture (Ring Stage) ([2]; ALA hydrochloride 200 μM, no iron (II) chloride): 95%
parasiticidal effect of PDT (malaria parasites; ALA 0.2 mM in medium, light irradiation from projector lamp of 410 W for 30 minutes): sufficient parasiticidal effect
ALA concentration in medium needed for PDT therapy to exhibit some effect (malaria parasites; illumination with ordinary indoor light): 2 mM

[Cl][Fe][Cl] [iron (II) chloride, reference compound]
Infection Rate (%) by Random Culture ([1]; without ALA, iron (II) chloride 0.1 μM, no iron/no ALA = 100%): 98%
Infection Rate (%) by Random Culture ([1]; without ALA, iron (II) chloride 1 μM, no iron/no ALA = 100%): 97%
Infection Rate (%) by Random Culture ([1]; without ALA, iron (II) chloride 10 μM, no iron/no ALA = 100%): 95%
Infection Rate (%) by Random Culture ([1]; without ALA, iron (II) chloride 100 μM, no iron/no ALA = 100%): 82%

CCN(CC)CCCC(C)Nc1ccnc2cc(Cl)ccc12 (stereo not shown) [chloroquine]
effect on malaria [3]: sufficient effects could not be obtained

Cl.NCC(=O)CCC(=O)O [ALA hydrochloride]
infection rate [4]: 0.47%
infection rate [5]: 1.8%

From patent publication US9463175B2, “Antimalarial drug which contains 5-aminolevulinic acid or derivative thereof as active ingredient” (SBI Pharmaceuticals Co., Ltd., priority 2010, dated 2016)
